From US11524960B2, “Heterobicyclic inhibitors of MAT2A and methods of use for treating cancer” (AGIOS PHARMACEUTICALS, INC., priority 2018, dated 2022) come the findings set out here.

The experiment concerns the target T1, MAT2A homodimer (Homo sapiens, UniProt P31153).
T1 construct: inferred from Ni sepharose purification and imidazole elution; made in house; host or cells: Sf9 insect cells, recombinant baculovirus (Bac to Bac, pFASTBAC1)
Description: Biochemical assay: inhibition of MAT2A (phosphate release, PiColorLock Gold). As to conditions: MAT2A IC50 score; read-out: Enzyme Inhibition (Example 275). On the procedure: Mat2A protein was expressed by recombinant baculovirus in SF9 infected cells using the Bac to Bac system cloned into the pFASTBAC1 vector (Invitrogen, Carlsbad, Calif.). Recombinant MAT2A was isolated from the cell lysate of 150 g of infected cells using HP Ni sepharose column chromatography. Recombinant MAT2A homodimer was eluted with 250 and 500 mM imidazole, and fractions containing MAT2A were identified by sodium dodecyl sulfate polyacrylamide gel electrophoresis and pooled.
For determination of the inhibitory potency of compounds against the MAT2A homodimer, protein was diluted to […] in assay buffer (50 mM Tris, pH 8.0, 50 mM KCl, 15 mM MgCl2, 0.3 mM EDTA, 0.005% [w/v] bovine serum albumin [BSA]). Test compound was prepared in 100% dimethyl sulfoxide (DMSO) at 50× the desired final concentration. […] of compound dilution was added to 40 μL of enzyme dilution and the mixture was allowed to equilibrate for 60 minutes at 25° C. The enzymatic assay was initiated by the addition of 10 μL of substrate mix (500 μM ATP, pH 7.0, 400 μM L-methionine in 1× assay buffer), and the mixture was incubated for a further 60 minutes at 25° C. The reaction was halted and the liberated phosphate released by the enzyme in stoichiometric amounts by the production of S-adenosyl methionine (SAM) was measured using the PiColorLock Gold kit (Innova Biosciences, UK). Absolute product amounts were determined by comparison to a standard curve of potassium phosphate buffer, pH 8.0.

T1 sequence (P31153 whole entry): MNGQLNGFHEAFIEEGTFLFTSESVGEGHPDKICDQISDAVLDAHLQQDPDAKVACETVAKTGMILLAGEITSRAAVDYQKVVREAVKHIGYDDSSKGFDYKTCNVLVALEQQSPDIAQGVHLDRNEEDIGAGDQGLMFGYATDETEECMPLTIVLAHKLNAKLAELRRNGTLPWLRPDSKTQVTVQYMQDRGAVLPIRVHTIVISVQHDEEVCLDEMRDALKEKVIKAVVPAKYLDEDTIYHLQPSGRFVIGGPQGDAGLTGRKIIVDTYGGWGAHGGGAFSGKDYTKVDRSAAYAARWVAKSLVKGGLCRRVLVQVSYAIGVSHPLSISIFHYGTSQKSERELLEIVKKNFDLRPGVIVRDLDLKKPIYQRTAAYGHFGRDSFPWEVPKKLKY

Regarding `Cn1cc2cc(-n3cc4ccc(NCC(F)(F)F)nc4c(-c4ccc(CC(F)F)cc4)c3=O)ccc2n1` [Example 214, 8-(4-(2,2-difluoroethyl)phenyl)-6-(2-methyl-2H-indazol-5-yl)-2-((2,2,2-trifluoroethyl)amino)-1,6-naphthyridin-7(6H)-one], the IC50 is less than 100 nM.

With `O=C1N(c2ccc3nc[nH]c3c2)Cc2cnc(NCC3CC3)nc2C12CCN(Cc1cc[nH]n1)C2` (stereo not drawn) [Example 109, 1′-((H-pyrazol-3-yl)methyl)-6-(1H-benzo[d]imidazol-6-yl)-2-((cyclopropylmethyl)amino)-5H-spiro[pyrido[4,3-d]pyrimidine-8,3′-pyrrolidin]-7(6H)-one], the IC50 was in the range of 100 to 1000 nM.

Take `COc1ccc(-n2cc3cnc(NCC(F)(F)F)nc3c(-c3ccc(C(F)(F)F)cc3)c2=O)cc1` [Example 197, 6-(4-methoxyphenyl)-2-((2,2,2-trifluoroethyl)amino)-8-(4-(trifluoromethyl)phenyl)pyrido[4,3-d]pyrimidin-7(6H)-one]: the IC50 lay within 100 to 1000 nM.

With `O=c1c(-c2ccc(Cl)cc2)c2nc(NCC(F)(F)F)ncc2cn1-c1ccc2nncn2c1` [Example 136, 6-([1,2,4]triazolo[4,3-a]pyridin-6-yl)-8-(4-chlorophenyl)-2-((2,2,2-trifluoroethyl)amino)pyrido[4,3-d]pyrimidin-7(6H)-one], the IC50 fell in the range of 100 to 1000 nM.

`Cc1nc2cc(-n3cc4cnc(NCC(F)(F)F)nc4c(-c4ccc(OC(F)F)cc4)c3=O)ccc2o1` [Example 149, 8-(4-(difluoromethoxy)phenyl)-6-(2-methylbenzo[d]oxazol-5-yl)-2-((2,2,2-trifluoroethyl)amino)pyrido[4,3-d]pyrimidin-7(6H)-one]: the IC50 is less than 100 nM.

As to `O=C1N(c2cn[nH]c2)Cc2cnc(NCC3CC3)nc2C12CCN(Cc1ccccc1F)C2` (stereo not drawn) [Example 122, 2-((cyclopropylmethyl)amino)-1′-(2-fluorobenzyl)-6-(1H-pyrazol-4-yl)-5,6-dihydro-7H-spiro[pyrido[4,3-d]pyrimidine-8,3′-pyrrolidin]-7-one], the IC50 is 100 to 1000 nM.

As to `Cn1cc2cc(-n3cc4cnc(NC5CC5)nc4c(-c4ccc(Cl)cc4)c3=O)ccc2n1` [Example 173, 8-(4-chlorophenyl)-2-(cyclopropylamino)-6-(2-methyl-2H-indazol-5-yl)pyrido[4,3-d]pyrimidin-7(6H)-one], the IC50 was less than 100 nM.

As to `O=C1N(c2cnoc2)Cc2cnc(NCC3CC3)nc2C12CCN(Cc1n[nH]cc1Cl)C2` (stereo not drawn) [Example 108, 1′-((4-chloro-1H-pyrazol-3-yl)methyl)-2-((cyclopropylmethyl)amino)-6-(isoxazol-4-yl)-5H-spiro[pyrido[4,3-d]pyrimidine-8,3′-pyrrolidin]-7(6H)-one], the IC50 lay in the range of 1000 to 10000 nM.

Turning to `O=c1c(-c2ccc(Cl)cc2)c2nc(NCC(F)(F)F)ncc2cn1-c1ccc2nccn2c1` [Example 134, 8-(4-chlorophenyl)-6-(imidazo[1,2-a]pyridin-6-yl)-2-(2,2,2-trifluoroethylamino)pyrido[4,3-d]pyrimidin-7(6H)-one], the IC50 is less than 100 nM.

As for `COc1ccc(N2Cc3cnc(OCC4CC4)nc3C3(CCN(Cc4ccn[nH]4)C3)C2=O)cc1` (stereo not drawn) [Example 114, 1′-((1H-pyrazol-3-yl)methyl)-2-(cyclopropylmethoxy)-6-(4-methoxyphenyl)-5H-spiro[pyrido[4,3-d]pyrimidine-8,3′-pyrrolidin]-7(6H)-one], the IC50 was in the range of 100 to 1000 nM.

As for `COc1ccc(N2Cc3cnc(NCC4CC4)nc3C3(CCN(C4CCCCC4)C3)C2=O)cc1` (stereo not drawn) [Example 104, 1′-cyclohexyl-2-((cyclopropylmethyl)amino)-6-(4-methoxyphenyl)-5H-spiro[pyrido[4,3-d]pyrimidine-8,3′-pyrrolidin]-7(6H)-one], the IC50 fell in the range of 1000 to 10000 nM.

`COc1ccc(-c2c(=O)n(-c3ccncc3)cc3cnc(NCC(F)(F)F)nc23)cc1` [Example 176, 8-(4-methoxyphenyl)-6-(pyridin-4-yl)-2-((2,2,2-trifluoroethyl)amino)pyrido[4,3-d]pyrimidin-7(6H)-one]: the IC50 was in the range of 100 to 1000 nM.

Take `COc1ccc(N2Cc3cnc(NCC4CC4)nc3C3(CCN(Cc4cc[nH]n4)C3)C2=O)cc1` (stereo not drawn) [Example 101, 1′-((1H-pyrazol-3-yl)methyl)-2-((cyclopropylmethyl)amino)-6-(4-methoxyphenyl)-5H-spiro[pyrido[4,3-d]pyrimidine-8,3′-pyrrolidin]-7(6H)-one]: the IC50 lay within 100 to 1000 nM.

As to `COc1ccc(-c2c(=O)n(-c3ccc4ncncc4c3)cc3cnc(NCC(F)(F)F)nc23)cc1` [Example 146, 8-(4-methoxyphenyl)-6-(quinazolin-6-yl)-2-((2,2,2-trifluoroethyl)amino)pyrido[4,3-d]pyrimidin-7(6H)-one], the IC50 lay within 100 to 1000 nM.

`CCNc1ncc2c(n1)C1(CCN(Cc3cc[nH]n3)C1)C(=O)N(c1ccc(OC)cc1)C2` (stereo not drawn) [Example 111, 1′-((1H-pyrazol-3-yl)methyl)-2-(ethylamino)-6-(4-methoxyphenyl)-5H-spiro[pyrido[4,3-d]pyrimidine-8,3′-pyrrolidin]-7(6H)-one]: the IC50 lay in the range of 1000 to 10000 nM.

For `COc1ccc(-n2cc3cnc(N(C)CC(F)(F)F)nc3c(-c3ccc(Br)cc3)c2=O)cc1` [Example 187, 8-(4-bromophenyl)-6-(4-methoxyphenyl)-2-(methyl(2,2,2-trifluoroethyl)amino)pyrido[4,3-d]pyrimidin-7(6H)-one], the IC50 lay within 1000 to 10000 nM.

For the molecule `O=c1c(-c2ccc(C3CC3)cc2)c2nc(NCC(F)(F)F)ncc2cn1-c1ccc2c(c1)CCO2` [Example 164, 8-(4-cyclopropylphenyl)-6-(2,3-dihydrobenzofuran-5-yl)-2-((2,2,2-trifluoroethyl)amino)pyrido[4,3-d]pyrimidin-7(6H)-one], the IC50 is less than 100 nM.

For the molecule `O=C1N(Cc2ccn[nH]2)Cc2cnc(NCC3CC3)nc2C12CCN(Cc1ccccc1F)C2` (stereo not drawn) [Example 120, 6-((1H-pyrazol-5-yl)methyl)-2-((cyclopropylmethyl)amino)-1′-(2-fluorobenzyl)-5,6-dihydro-7H-spiro[pyrido[4,3-d]pyrimidine-8,3′-pyrrolidin]-7-one], the IC50 is 1000 to 10000 nM.

Regarding `COc1ccc(-n2cc3cnc(NCC4CC4)nc3c(-c3ccc(Br)cc3)c2=O)cc1` [Example 190, 8-(4-bromophenyl)-2-((cyclopropylmethyl)amino)-6-(4-methoxyphenyl)pyrido[4,3-d]pyrimidin-7(6H)-one], the IC50 was less than 100 nM.

In the case of `COCc1ccc2cn(-c3ccc4nn(C)cc4c3)c(=O)c(-c3ccc(Cl)cc3)c2n1` [Example 136-A, 8-(4-chlorophenyl)-2-(methoxymethyl)-6-(2-methyl-2H-indazol-5-yl)-1,6-naphthyridin-7(6H)-one], the IC50 was less than 100 nM.

Regarding `COc1ccc(N2Cc3cnc(NCC(C)C)nc3C3(CCN(Cc4cc[nH]n4)C3)C2=O)cc1` (stereo not drawn) [Example 113, 1′-((1H-pyrazol-3-yl)methyl)-2-(isobutylamino)-6-(4-methoxyphenyl)-5H-spiro[pyrido[4,3-d]pyrimidine-8,3′-pyrrolidin]-7(6H)-one], the IC50 was in the range of 100 to 1000 nM.

As for `O=c1c(-c2ccc(Cl)cc2)c2nc(NCC(F)(F)F)ncc2cn1-c1ccc2n[nH]cc2c1` [Example 142, 8-(4-chlorophenyl)-6-(2H-indazol-5-yl)-2-((2,2,2-trifluoroethyl)amino)pyrido[4,3-d]pyrimidin-7(6H)-one], the IC50 was 100 to 1000 nM.

As for `O=c1c(-c2ccc(OC(F)F)cc2)c2nc(OCC(F)(F)F)ncc2cn1-c1ccc2nc[nH]c2c1` [Example 266, 6-(H-benzo[d]imidazol-6-yl)-8-(4-(difluoromethoxy)phenyl)-2-(2,2,2-trifluoroethoxy)pyrido[4,3-d]pyrimidin-7(6H)-one], the IC50 lay within 100 to 1000 nM.

For the molecule `COc1ccc(-n2cc3cnc(OCC(F)(F)F)nc3c(-c3ccc(Br)cc3)c2=O)cc1` [Example 261, 8-(4-bromophenyl)-6-(4-methoxyphenyl)-2-(2,2,2-trifluoroethoxy)pyrido[4,3-d]pyrimidin-7(6H)-one], the IC50 is less than 100 nM.

Regarding `COc1cc(CN2Cc3cnc(NCC4CC4)nc3C3(CCN(Cc4ccccc4F)C3)C2=O)ccn1` (stereo not drawn) [Example 119, 2-((cyclopropylmethyl)amino)-1′-(2-fluorobenzyl)-6-((2-methoxypyridin-4-yl)methyl)-5,6-dihydro-7H-spiro[pyrido[4,3-d]pyrimidine-8,3′-pyrrolidin]-7-one], the IC50 is 1000 to 10000 nM.

On to `O=c1c(-c2ccc(OC(F)F)cc2)c2nc(OC3CC3)ncc2cn1-c1ccc2ncccc2c1` [Example 273, 2-cyclopropoxy-8-(4-(difluoromethoxy)phenyl)-6-(quinolin-6-yl)pyrido[4,3-d]pyrimidin-7(6H)-one], for which the IC50 is less than 100 nM.

For the molecule `COC(=O)C1CC(N2CCC3(C2)C(=O)N(c2ccc(OC)cc2)Cc2cnc(NCC4CC4)nc23)C1` (stereo not drawn) [Example 105, methyl 3-(2-((cyclopropylmethyl)amino)-6-(4-methoxyphenyl)-7-oxo-6,7-dihydro-5H-spiro[pyrido[4,3-d]pyrimidine-8,3′-pyrrolidin]-1′-yl)cyclobutanecarboxylate], the IC50 was in the range of 1000 to 10000 nM.
